How the values were obtained:
root parasitic nematodes = settings: root application; cited from earlier work
M. graminicola = experiment: Infection experiment with JA/ET mutant and biosynthesis inhibitors, foliar spray; assay type: in vivo, Meloidogyne graminicola; settings: inhibitor alone sprayed on wild-type (DIECA 100 μM, AoA 12.5 mM) vs wild-type/control plants; 12 days after inoculation
Procedure: (§1) M. graminicola originally isolated in the Philippines (Batangas) was cultured on susceptible rice plants. Second stage juveniles (J2s) were extracted using a sieve/tray extraction method and inoculation was done as described in Nahar et al., (2011). For susceptibility assays, at least two independent experiments were carried out, each time including eight plants per treatment. Twelve days after inoculation (dai), roots were stained using acid fuchsine (Nahar et al., 2011) to count galls and number of nematodes in the roots.
(§2) Reduced Ascorbic acid (AA, 20 mM), dehydroascorbic acid (DHA, 20 mM), ascorbate oxidase (AO, 20 U/ml), methyl jasmonate (MeJA, 100 μM), aminooxyacetic acid (AoA, 12.5 mM), diethyldithiocarbamic acid (DIECA, 100 μM) and ethephon (100 μM) were purchased from Sigma and dissolved in water (except MeJA that was first dissolved in a drop of ETOH) to attain the indicated concentration.
(§3) For foliar application, all chemicals were dissolved in water and 0.02% (v/v) of Tween20 as a surfactant was added prior to spraying on aerial portions of the rice plants. Control plants were sprayed with distilled water containing 0.02% Tween20. Eight plants per treatment were sprayed until run-off with 6.5 mL of solution (at 24 h prior to nematode inoculation, in cases where infected plants were used). The substrate was covered to avoid direct contact with the roots and/or nematodes.

root defence pathways = settings: foliar application; cited from earlier work
rice seedlings = experiment: Evaluation of seedling growth after drenching rice seedlings; assay type: in vivo, Oryza sativa cv. Nipponbare; settings: 3-days old rice seedlings drenched with 1 mL (AA 20 mM, DHA 20 mM, AO 20 U/ml); 5 days after drenching; vs water control
Procedure: (§4) Rice—Seeds of wild-type rice Oryza sativa cv. Nipponbare were obtained from USDA (GSOR-100). Seeds were germinated on wet filter paper for 4-5 days at 30° C. and seedlings were then transferred to SAP-substrate (Sand mixed with Absorbent Polymer AquaPerla®, DCM, Belgium) and further grown at 28° C., under a light regime of (day/night) 12/12. Hoagland solution was given as a source of nutrients 3 times a week.
as §2
3-days old rice seedlings were drenched with 1 mL of AA (20 mM), AO (20 U/mL), DHA (20 mM) or water (H2O) as a negative control. Rice root length and dry root weight as well as the number of embryonic crown roots (ECR) were measured 5 days after drenching.

[1] = system: root-knot nematode M. graminicola; experiment: Susceptibility assay on rice plants, foliar spray; assay type: in vivo, Meloidogyne graminicola; settings: foliar spray 24 h prior to inoculation (AA 20 mM, DHA 20 mM, AO 20 U/ml); 12 dai; vs control
Procedure: as §1, §2, §3

[2] = Ascorbate measurements in shoots and roots of foliar sprayed rice; assay type: in vivo, Oryza sativa cv. Nipponbare; settings: 24 h after foliar application; vs control plants
Procedure: as §3
[…] In each assay, 100 mg of crushed material was used per sample, and at least 4 biological replicates were analyzed per treatment. Reduced and oxidized AA were measured according to the method described in Ueda et al., 2013. Absorbance was monitored using a microplate reader (TECAN—Infinite200pro).

[3] = system: root-knot nematode Meloidogyne graminicola; experiment: Susceptibility assay on rice plants, soil drench; assay type: in vivo; settings: soil drench 24 h prior to inoculation (AA 20 mM, DHA 20 mM, AO 20 U/mL); twelve days after inoculation; vs control
Procedure: as §1, §2
For soil application, 6.5 mL of each solution was drenched on the substrate, 24 h prior to nematode inoculation.

Heterodera schachtii = experiment: Sugar beet tolerance to beet cyst nematode infection after foliar spray; assay type: in vivo; settings: three-weeks old sugar beet, foliar spray (AA 20 mM, AO 20 U/mL, DHA 20 mM), 250 H. schachtii per plant, 4 DAS (3 dai); for shoot height: DHA effect not statistically significant
Procedure: (§5) Sugar beet—seeds of cv. Amarok were germinated on moist tissue for 4-5 days at 25° C. For longer experiments seedlings were transplanted to polyvinyl-chloride (PVC) tubes containing fine soil particles. All experiments were conducted in a plant growth room at 25° C., with a 16/8 h day/night regime. The plants were fertilized by supplying Hoagland solution as a source of nutrients 3 times a week.
BNC cysts were obtained from Iran and were maintained on sugar beet (cv. Amarok) plants. Cysts were obtained from stock cultures, by washing the infected soil and letting the cysts to float in water. Full cysts with eggs were hand-picked and allowed to dry before setting up for hatching. For second-stage juveniles (J2) to hatch, cysts were placed in 3 mM of […] and transferred to an incubator/shaker at a temperature of 25.5° C. at 70 rpm for 4 days (Kammerhofer et al., 2015). J2 were re-suspended in water and counted under a stereomicroscope. Around 250-300 J2 nematodes were inoculated per plant. One day before and after inoculation, plants were not supplied with any nutrients or water. To investigate the plant tolerance to BCN infection root length, shoot height, fresh root weight as well as the number of cysts were measured at different time points after spraying and/or inoculation. For all experiments, 8 individual plants were used per treatment.
as §2, §3

[4] = system: root-knot nematode Meloidogyne graminicola; experiment: Root growth in rice after foliar spray, nematode-infected conditions (tolerance); assay type: in vivo; settings: 14-days old rice, foliar spray AO 20 U/mL, 250 nematodes per plant, time point not stated
Procedure: as §4, §1, §2, §3

sugar beet plants = experiment: Root and shoot growth in uninfected sugar beet plants after foliar spray; assay type: in vivo, Beta vulgaris cv. Amarok; settings: two-week old sugar beet, seven days later
Procedure: as §5, §2, §3

[5] = foliar spray, effect not statistically significant

## silicon
Root parasitic nematodes
  rice plant defence, tolerance or resistance against root parasitic nematodes: enhances the rice plant defence system

## CCN(CC)C(=S)S [DIECA, diethyldithiocarbamic acid, reference compound]
M. graminicola
  number of galls: significantly increased number of galls

## NOCC(=O)O [AoA, aminooxyacetic acid, reference compound]
M. graminicola
  number of galls: significantly higher number of galls

## CC/C=C\CC1C(=O)CCC1CC(=O)OC (stereo not drawn) [MeJA, methyl jasmonate]
Root defence pathways
  activation of root defence pathways: can activate root defence pathways with varying efficacy

## O=P(O)(O)CCCl [ethephon]
Root defence pathways
  activation of root defence pathways: can activate root defence pathways with varying efficacy

## CC(N)CC(=O)O (stereo not drawn) [BABA, β-aminobutyric acid]
Root parasitic nematodes
  rice plant defence, tolerance or resistance against root parasitic nematodes: enhances the rice plant defence system

## O=C1O[C@H]([C@@H](O)CO)C(O)=C1O [AA, ascorbic acid]
Rice seedlings
  number of embryonic crown roots (ECR): significantly fewer ECR
  root length: slightly shorter roots
[1]
  number of galls: no significant differences
  number of nematodes: no significant differences
[2]
  amount of reduced AA in roots: no changes
  amount of reduced AA in shoots: significantly increased
[3]
  number of galls: significantly lower number of galls
  number of nematodes: lower number of nematodes
Heterodera schachtii
  root length: None of the other treatments (AA or AO) had significant effects
  root weight: None of the other treatments (AA or AO) had significant effects
  shoot weight: None of the other treatments (AA or AO) had significant effects
  shoot height: None of the other treatments (AA or AO) had significant effects

## Cc1ncc(C[n+]2csc(CCO)c2C)c(N)n1 [thiamine]
Root parasitic nematodes
  rice plant defence, tolerance or resistance against root parasitic nematodes: enhances the rice plant defence system

B1: AO: ascorbate oxidase, purchased from Sigma, used at 20 U/ml (protein, UniProt P37064 1-552, looked up)
L-ascorbate oxidase: SQIRHYKWEVEYMFWAPNCNENIVMGINGQFPGPTIRANAGDSVVVELTNKLHTEGVVIHWHGILQRGTPWADGTASISQCAINPGETFFYNFTVDNPGTFFYHGHLGMQRSAGLYGSLIVDPPQGKKEPFHYDGEINLLLSDWWHQSIHKQEVGLSSKPIRWIGEPQTILLNGRGQFDCSIAAKYDSNLEPCKLKGSESCAPYIFHVSPKKTYRIRIASTTALAALNFAIGNHQLLVVEADGNYVQPFYTSDIDIYSGESYSVLITTDQNPSENYWVSVGTRARHPNTPPGLTLLNYLPNSVSKLPTSPPPQTPAWDDFDRSKNFTYRITAAMGSPKPPVKFNRRIFLLNTQNVINGYVKWAINDVSLALPPTPYLGAMKYNLLHAFDQNPPPEVFPEDYDIDTPPTNEKTRIGNGVYQFKIGEVVDVILQNANMMKENLSETHPWHLHGHDFWVLGYGDGKFSAEEESSLNLKNPPLRNTVVIFPYGWTAIRFVADNPGVWAFHCHIEPHLHMGMGVVFAEGVEKVGRIPTKALACGGTAKSLINNPKNP
Rice seedlings
  dry root weight: some positive effects
  number of embryonic crown roots (ECR): some positive effects
  root length: no root length effects
[4]
  root length: slightly increased root length
[1]
  number of galls: significantly lower number of galls
  number of nematodes: lower number of nematodes
[2]
  DHA level in roots: accumulating
  total levels of reduced and oxidized ascorbate in shoots: slightly decreased
[3]
  number of galls: no significant difference
  number of nematodes: no significant difference
Sugar beet plants; foliar spray (DHA 20 mM, AO 20 U/mL), vs water control
  root length: significantly longer roots
Sugar beet plants; [5]
  fresh root weight: positively affected
  shoot length: positively affected
Heterodera schachtii
  root length: None of the other treatments (AA or AO) had significant effects
  root weight: None of the other treatments (AA or AO) had significant effects
  shoot weight: None of the other treatments (AA or AO) had significant effects
  shoot height: None of the other treatments (AA or AO) had significant effects

From patent US20230104477A1, “USE OF DEHYDROASCORBIC ACID AGAINST NEMATODE INFECTION IN PLANTS” (Universiteit Gent, priority 2019, published 2023)
